Data taken from US8207155B2, “Sulfonyl-azetidin-3-yl-methylamine amide analogs as GlyTl inhibitors, methods for making same, and use of same in treating psychiatric disorders” (Vanderbilt University, priority 2009, dated 2012).

biological target: T1, GlyT1 (Homo sapiens, UniProt P48067); assay: GlyT1 [14C]-glycine uptake inhibition in human placental choriocarcinoma (JAR) cells; type: cell-based; conditions: inhibition of specific [14C]-glycine uptake; cells endogenously expressing GlyT1; value printed in pM; read-out: Potency (IC50)
T1 construct: Human placental choriocarcinoma cells endogenously expressing GlyT1; endogenous in cells; host or cells: JAR human placental choriocarcinoma cells
T1 sequence (P48067 1-706): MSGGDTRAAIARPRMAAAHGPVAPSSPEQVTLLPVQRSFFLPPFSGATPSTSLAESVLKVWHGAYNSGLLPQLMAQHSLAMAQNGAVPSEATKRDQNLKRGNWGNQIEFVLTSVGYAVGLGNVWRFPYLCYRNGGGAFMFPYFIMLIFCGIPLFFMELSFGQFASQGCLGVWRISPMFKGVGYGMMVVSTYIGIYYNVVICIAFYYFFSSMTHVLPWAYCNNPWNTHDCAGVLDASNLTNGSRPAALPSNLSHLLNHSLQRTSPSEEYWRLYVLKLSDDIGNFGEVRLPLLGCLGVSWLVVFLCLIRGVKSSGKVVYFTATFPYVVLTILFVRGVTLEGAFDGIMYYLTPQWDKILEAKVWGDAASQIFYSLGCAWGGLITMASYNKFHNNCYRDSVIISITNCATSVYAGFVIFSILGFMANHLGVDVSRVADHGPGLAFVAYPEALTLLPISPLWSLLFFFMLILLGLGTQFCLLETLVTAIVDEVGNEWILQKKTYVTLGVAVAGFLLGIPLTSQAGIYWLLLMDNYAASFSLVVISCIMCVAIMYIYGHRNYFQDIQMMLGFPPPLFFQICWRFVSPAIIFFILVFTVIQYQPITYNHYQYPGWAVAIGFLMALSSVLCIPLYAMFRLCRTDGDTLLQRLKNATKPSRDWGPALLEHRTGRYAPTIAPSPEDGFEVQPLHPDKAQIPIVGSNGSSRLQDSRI
Description: Human placental choriocarcinoma cells endogenously expressing GlyT1 can be cultured using standard conditions. Cells can then be grown at 37° C. in a humidified atmosphere 40-48 hours before the assay. Culture medium can be removed from the culture plate, and cells can be incubated with an amount of TB1A buffer with or without the compounds of the present invention for a sufficient period of time. Then an amount of [^14C]-glycine diluted with TB1A can be added to each well. After incubation the microplates can be sealed and counted. Non-specific uptake of [^14C]-glycine can be determined in the presence of unlabeled glycine. To determine potencies, a range of concentrations of the compounds of the present invention can be added to the cells, followed by the fixed concentration of [^14C]-glycine. The concentration of the present compound that inhibited half of the specific uptake of [^14C]glycine (IC50 value) can be determined from the assay data by non-linear curve fitting.

Structure (SMILES) | IC50 [pM]
Cn1cnc(S(=O)(=O)N2CC(C(NC(=O)c3ccc(Cl)cc3Cl)c3ccccc3)C2)c1 (single isomer, unassigned) [Compound 3b-1, 2,4-dichloro-N-((1(1-methyl-1H-imidazol-4-ylsulfonyl)azetidin-3-yl)(phenyl)methyl)benzamide] | 29

same assay, conditions: inhibition of specific [14C]-glycine uptake; cells endogenously expressing GlyT1; values given in μM; read-out: Potency (IC50)

Structure (SMILES) | IC50 [pM]
CCCS(=O)(=O)N1CC(C(NC(=O)c2ccc(Cl)cc2Cl)c2ccccc2)C1 (single isomer, unassigned) [Compound 3a-1, 2,4-dichloro-N-(phenyl(1-(propylsulfonyl)azetidin-3-yl)methyl)benzamide] | > 1e+07
Cn1cnc(S(=O)(=O)N2CC(C(NC(=O)c3ccc(F)cc3)c3ccccc3)C2)c1 (centres unmarked) [Compound 9d] | > 1e+07
Cn1cnc(S(=O)(=O)N2CC(C(NC(=O)c3ccccc3F)c3ccccc3)C2)c1 (centres unmarked) [Compound 9e] | 1.1e+06
Cn1cnc(S(=O)(=O)N2CC(C(NC(=O)c3ccc(F)c(F)c3)c3ccccc3)C2)c1 (centres unmarked) [Compound 9i] | 1e+06
Cn1cnc(S(=O)(=O)N2CC(C(NC(=O)c3cc(Cl)cc(Cl)c3)c3ccccc3)C2)c1 (centres unmarked) [Compound 9j] | 1.5e+06
Cn1cnc(S(=O)(=O)N2CC(C(NC(=O)c3ccc(Cl)cc3Cl)C3CCCC3)C2)c1 (centres unmarked) [Compound 10e] | 1.6e+06

same assay, conditions: inhibition of specific [14C]-glycine uptake; cells endogenously expressing GlyT1; values in nM; read-out: Potency (IC50)

Structure (SMILES) | IC50 [pM]
CCCS(=O)(=O)N1CC(C(NC(=O)c2ccc(Cl)cc2Cl)c2ccccc2)C1 (single isomer, unassigned) [Compound 3a-2, 2,4-dichloro-N-(phenyl(1-(propylsulfonyl)azetidin-3-yl)methyl)benzamide] | 627000
Cn1cnc(S(=O)(=O)N2CC(C(NC(=O)c3ccc(Cl)cc3Cl)c3ccccc3)C2)c1 (single isomer, unassigned) [Compound 3b-2, 2,4-dichloro-N-((1(1-methyl-1H-imidazol-4-ylsulfonyl)azetidin-3-yl)(phenyl)methyl)benzamide] | 627000
CCCS(=O)(=O)N1CC(C(NC(=O)c2ccc(Cl)cc2Cl)c2ccccc2)C1 (centres unmarked) [Compound 3a, 2,4-dichloro-N-(phenyl(1-(propylsulfonyl)azetidin-3-yl)methyl)benzamide] | 730000
Cn1cnc(S(=O)(=O)N2CC(C(NC(=O)c3ccc(Cl)cc3Cl)c3ccccc3)C2)c1 (centres unmarked) [Compound 3b, 2,4-dichloro-N-((1(1-methyl-1H-imidazol-4-ylsulfonyl)azetidin-3-yl)(phenyl)methyl)benzamide] | 39000
Cn1cnc(S(=O)(=O)N2CC(C(NC(=O)c3ccccc3Cl)c3ccccc3)C2)c1 (centres unmarked) [Compound 9a] | 133000
Cn1cnc(S(=O)(=O)N2CC(C(NC(=O)c3ccc(Cl)cc3)c3ccccc3)C2)c1 (centres unmarked) [Compound 9b] | 334000
Cn1cnc(S(=O)(=O)N2CC(C(NC(=O)c3ccc(Cl)c(Cl)c3)c3ccccc3)C2)c1 (centres unmarked) [Compound 9c] | 446000
Cn1cnc(S(=O)(=O)N2CC(C(NC(=O)c3c(F)cccc3F)c3ccccc3)C2)c1 (centres unmarked) [Compound 9f] | 439000
Cn1cnc(S(=O)(=O)N2CC(C(NC(=O)c3ccccc3C(F)(F)F)c3ccccc3)C2)c1 (centres unmarked) [Compound 9g] | 101000
Cn1cnc(S(=O)(=O)N2CC(C(NC(=O)c3ccc(F)cc3F)c3ccccc3)C2)c1 (centres unmarked) [Compound 9h] | 454000
Cn1cnc(S(=O)(=O)N2CC(C(NC(=O)c3cccnc3Cl)c3ccccc3)C2)c1 (centres unmarked) [Compound 9k] | 718000

Results, then the molecule that gave them:

IC50 [pM] | Structure (SMILES)
394000 | CC(C)C(NC(=O)c1ccc(Cl)cc1Cl)C1CN(S(=O)(=O)c2cn(C)cn2)C1 (centres unmarked) [Compound 10a]
185000 | CCCC(NC(=O)c1ccc(Cl)cc1Cl)C1CN(S(=O)(=O)c2cn(C)cn2)C1 (centres unmarked) [Compound 10b]
40000 | Cn1cnc(S(=O)(=O)N2CC(C(NC(=O)c3ccc(Cl)cc3Cl)c3cccs3)C2)c1 (centres unmarked) [Compound 10c]
253000 | Cn1cnc(S(=O)(=O)N2CC(C(NC(=O)c3ccc(Cl)cc3Cl)C3CC3)C2)c1 (centres unmarked) [Compound 10d]
581000 | CC(C)CC(NC(=O)c1ccc(Cl)cc1Cl)C1CN(S(=O)(=O)c2cn(C)cn2)C1 (centres unmarked) [Compound 10f]
356000 | Cn1cnc(S(=O)(=O)N2CC(C(NC(=O)c3ccccc3Cl)c3ccccn3)C2)c1 (centres unmarked) [Compound 10g]
256000 | Cn1cnc(S(=O)(=O)N2CC(C(NC(=O)c3ccccc3C(F)(F)F)c3ccccn3)C2)c1 (centres unmarked) [Compound 10h]
940000 | Cn1cnc(S(=O)(=O)N2CC(C(NC(=O)c3ccc(Cl)cc3)c3ccccn3)C2)c1 (centres unmarked) [Compound 10i]
